This note sets out measurements from patent US7745465B2, “Method of enhancing cellular production of molecular chaperone, hydroxylamine derivatives useful for enhancing the chaperone production and the preparation thereof” (CytRx Corporation, priority 1995, dated 2010).

Test [1] concerns hsp72. In words: hsp72 content of K562 tumor cells by flow-cytometry. As to conditions: for hsp72 expression compared to heat shock alone: 5×10^−5 M during 42° C. for 2 hours, 16 hrs recovery, maleate. In kind it is cell-based, human. The source says:
Human K562 cells, a myeloid tumor cell line derived from a patient with chronic myelogenous leukemia in blast phase (ATCC, CCL243) was used (Lozzio, B C and Lozzio, B B Blood 45:321, 1975).

Test [2] deals with plasma membrane fluidity. As to the kind of experiment: Steady-state fluorescence anisotropy of DPH-PA in serum deprived cells. In kind it is cell-based. The note with it: both cell models. As for the experimental part:
Experiments were carried out using WEH1 mouse fibrosarcoma and H9c2 rat heart muscle cell lines divided into three groups: • control (10% FCS fetal calf serum) • serum deprived • N-[2-hydroxy-3-(1-piperidinyl)propoxy]-3-pyridinecarboximidoyl chloride maleate (10^−5 M) treated and serum deprived 1.2(i) Serum Deprivation and MTT Test
Cell suspensions of […] in PBS were labeled by the addition of DPH-PA (3-[p-(6-Phenyl)-1,3,5-hexatrienyl]phenylpropionic acid) dissolved in tetrahydrofuran at a final concentration of 0.1 :M and incubated for 10 min. at 37 C. The amount of organic solvent added was 0.05% to avoid its effect on cell membranes. […] Fluorescence measurements were carried out at 37° C. using a Quanta Master QM-1 T-format luminescence spectrometer (Photon Technology Int. Inc., N.J. USA) equipped with polarizers in the excitation and in the two emission light path. […] The measured fluorescence intensities were corrected for background fluorescence and light scattering from the unlabeled sample. The fluorescence anisotropy was calculated as rs=(IVV−G·IVH)/(IVV+(2×G×IVH))
where IVV and IVH are observed intensities measured with polarizers parallel and perpendicular to the vertically polarized exciting beam, respectively. […]

The subject of test [3] is Hsp72. In words: Heat stress induced hsp72 expression in rat testicular explant. In kind it is cell-based. The note with it: 10^−5 M, 15 min. before 43° C. 30 min. The gist of the method: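 Testicular tubule explants from 200 g CFY rats in MEM with 10% FBS, preincubated 1 h at 37° C., then treated with 10^−5 M compound for 15 min. Heat shock at 43° C. for 30 min; induced hsp72 measured after further 6 h at 37° C.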

The test system of test [4] is human skin grafted on severe combined immunodeficiency disease (SCID) mice. In words: UVB light induced skin injury in human skin grafted SCID mice. In kind it is in vivo, mouse. As to conditions: 5.0 mg/kg i.p. for 7 days. As to the method:
Human skin tissues were grafted onto immunodeficiency (SCID) mice. The experimental protocol involved a treatment of one group of the mice with N-[2-hydroxy-3-(1-piperidinyl)propoxy]-3-piridinecarboxymidoyl chloride maleate (5.0 mg/kg i.p.) and the other with the solvent NaCl solution (300 μl) for 7 days. On day 8, both groups of mice were exposed to UVB light (100 mJ/cm^2) 24 hours subsequent to the exposure, skin biopsies were taken for histological (sections stained with hematoxylin and eosin), and immunohistological examinations (indirect immunoflourescence technique with monoclonal antibody, mAB).
(i) Human skin transplanted SCID mice treated by N-[2-hydroxy-3-(1-piperidinyl)propoxy]-3-piridinecarboximidoyl chloride maleate (5.0 mg/kg i.p.) or vehicle were exposed to UVB light (100 mJ/cm^2). After 24 h skin biopsies were taken for histological examination and for hsp72 determination using immunohistological and Western blotting techniques.

For test [5], the system named is SPRD male rats. As to the kind of experiment: Cardiac ischemia (LAD occlusion 5 min, reperfusion 10 min): ventricular tachycardia, fibrillation, survival. In kind it is in vivo, rat. As to the method: Experiments were carried out in SPRD male rats. The animals were anaesthetized with Nembutal in a dose of 60 mg/kg/i.p. After opening the chest and pericardium, the LAD coronary artery was occluded for 5 minutes and then the incidence and duration of ventricular tachycardia and fibrillation in the reperfusion period (10 minutes) were investigated. Tissue samples were collected from the left and right ventricles.

The subject of test [6] is HSP-70. As to the kind of experiment: Myocardial HSP-70 protein content in isolated rat hearts (Western blot). As to the method:
In separate experiments the effects of heat stress, ischemia, N-[2-hydroxy-3-(1-piperidinyl)propoxy]-3-pyridine carboximidoyl chloride maleate and their combination were studied on myocardial HSP-70 protein content. Isolated hearts were subjected to 15 min. heat-stress (42° C.), global normothermic ischemia, and N-[2-hydroxy-3-[…](1-piperidinyl)propoxy]-3-pyridine carboximidoyl chloride maleate perfusion followed by 120 and 180 min. reperfusion, respectively.
A general note: In western blotting, separated proteins are transferred to a membrane and probed.

[7] abbreviates: 0.5-, 0.75-, 1.0 mg/kg i.v. 5 min. before the occlusion.

Consider `O=C(O)/C=C\C(=O)O.OC(CON=C(Cl)c1cccnc1)CN1CCCCC1` (stereo not drawn) [N-[2-hydroxy-3-(1-piperidinyl)-propoxy]3-pyridinecarboximidoyl chloride maleate], for which the “hsp72 expression compared to heat shock alone” value in test [1] (listed as N-[2-hydroxy-3-(1-piperidinyl)propoxy]-3-piridinecarboximidoyl chloride maleate) is “enhanced level of hsp72”; in test [1] (listed as N-[2-hydroxy-3-(1-piperidinyl)propoxy]-3-piridinecarboxymidoyl chloride maleate), “significant increase of hsp72 expression”. Also, in test [1] (compound alone, no heat shock), the hsp72 levels result is recorded as “did not increase hsp72 levels”. Moreover, in test [2], the “membrane physical state (fluorescence anisotropy of DPH-PA)” value was “almost complete preservation of the membrane physical state”. For the same compound, in test [3], the “Level of hsp72 relative to the stress exposed control” value is listed as “+ + +”. The “clinical signs of injuries due to UV exposure” value is given as “prevented UVB light induced skin injury” in test [4] (UVB 100 mJ/cm^2, listed as N-[2-hydroxy-3-(1-piperidinyl)propoxy]-3-piridinecarboximidoyl chloride maleate) and “clinical signs of injuries due to UV exposure could not be observed” in test [4] (UVB 100 mJ/cm^2, listed as N-[2-hydroxy-3-(1-piperidinyl)propoxy]-3-piridinecarboxymidoyl chloride maleate). The “survival of reperfusion after the 5 min. occlusion” value in test [5] (100 mg/kg p.o., all control animals (n=6) died) is reported as “survived the reperfusion”. The “mean duration of ventricular tachycardia” value in test [5] (setting [7]) is on record as “reduced significantly”. Further, the “survival rate (preventing ventricular fibrillation)” value in test [5] (setting [7]) was “improved the survival rate”. Besides, the “myocardial HSP-70 content” value is reported as “did not increase myocardial HSP-70 content” in test [6] (compound alone) and “increased to approximately the same level as found after heat stress” in test [6] (ischemia in the presence of 20 mg/l).
